Source: patent US20240254129A1, “HETEROCYCLIC COMPOUNDS AND USES THEREOF” (Kumquat Biosciences Inc., priority 2021, published 2024)

What was measured:
[1] = target: GST-tagged K-Ras mutant / His-tagged hSOS1 (Homo sapiens, UniProt P01116); assay: HTRF assay, K-Ras mutant / SOS1 interaction; assay type: binding; settings: compound nos. 102-196, general methodology of example 5; read-out: IC50 against mutant Kras
From the text: (§1) This assay can be also used to assess a selective inhibition of a mutant Ras protein relative to a wildtype, or relative to a different mutant Ras protein. For example, the equilibrium interaction of wildtype Kras or K-Ras mutant (e.g., wildtype or a mutant thereof including those mentioned in Example 6) with SOS1 (e.g., hSOS1) can be assessed as a proxy or an indication for a subject compound's ability to bind and inhibit Ras protein. HTRF assay detects from (i) a fluorescence resonance energy transfer (FRET) donor (e.g., antiGST-Europium) that is bound to GST-tagged K-Ras mutant to (ii) a FRET acceptor (e.g., anti-6His-XL665) bound to a His-tagged hSOS1.
(§2) The assay buffer can contain ˜5 mM HEPES pH 7.4, ˜150 mM NaCl, ˜ 1 mM DTT, 0.05% BSA and 0.0025% (v/v) Igepal. A Ras working solution is prepared in an assay buffer containing typically a suitable amount of the protein construct (e.g., GST-tagged K-Ras mutant) and the FRET donor (e.g., antiGST-Eu(K) from Cisbio, France). A SOS1 working solution is prepared in an assay buffer containing suitable amount of the protein construct (e.g., His-hSOS1) and the FRET acceptor (e.g., anti-6His-XL665 from Cisbio, France). A suitable amount of the protein construct will depend on the range of activity or range of IC50 values being detected or under investigation. For detecting IC50 within a range of 500 nM, the protein constructs of the same range of molarity can be utilized.
(§3) A fixed volume of DMSO with or without test compound is transferred into a 384-well plate. Ras working solution is added to all wells of the test plate. SOS1 working solution is added to all wells except for those that are subsequently filled the inhibitor control solution. Upon incubation for about 10 minutes or longer, the fluorescence is measured with a M1000Pro plate reader (Tecan) using HTRF detection (excitation 337 nm, emission 1: 620 nm, emission 2: 665 nm). Compounds are tested in duplicates at different concentrations (for example, 10 μM, 2.5 μM, 0.63 μM, 0.16 μM, 0.04 µM, 0.01 μM test compound). The ratiometric data (i.e., emission 2 divided by emission 1) is used to calculate IC50 values against Ras using GraphPad Prism (GraphPad software). Following this general procedure, samples were tested with or without a subject compound disclosed herein including compounds exemplified in Table 1 to assess their abilities to inhibit K-Ras signaling or their respective IC50 values against a given Ras protein (e.g., a given mutant K-Ras) of interest.

[2] = target: T1, wildtype Kras / hSOS1 (Homo sapiens, UniProt P01116); assay: HTRF assay, wildtype Kras / SOS1 interaction; assay type: binding; settings: compound nos. 102-196, general methodology of example 5; read-out: IC50 against wildtype Kras
T1 construct: made in house; host or cells: E. coli BL21 (DE3)
T1 sequence (P01116 1-188 isoform P01116-2): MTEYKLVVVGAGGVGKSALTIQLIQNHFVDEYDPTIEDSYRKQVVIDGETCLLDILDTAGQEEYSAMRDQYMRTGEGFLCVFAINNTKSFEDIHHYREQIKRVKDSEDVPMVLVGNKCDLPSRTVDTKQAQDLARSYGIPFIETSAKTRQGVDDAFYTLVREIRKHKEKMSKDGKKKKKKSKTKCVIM
From the text: as §1, §2, §3

Chain of GST-tagged K-Ras mutant / His-tagged hSOS1 (P01116 whole entry G12D, form open): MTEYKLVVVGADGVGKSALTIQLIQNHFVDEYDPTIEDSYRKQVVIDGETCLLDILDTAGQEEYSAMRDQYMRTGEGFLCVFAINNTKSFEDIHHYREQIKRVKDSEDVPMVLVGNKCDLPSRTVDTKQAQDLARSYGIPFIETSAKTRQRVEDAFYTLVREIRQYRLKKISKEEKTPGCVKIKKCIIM

SMILES	IC50 [1] [nM]	IC50 [2] [nM]
Cc1nc2c(-c3c(Cl)cc4c(N5CCNCC(F)(F)C5)nc(OC[C@@H]5CCCN5C)nc4c3F)cccc2s1 [Compound 138, 4-(6-chloro-4-(6,6-difluoro-1,4-diazepan-1-yl)-8-fluoro-2-(((S)-1-methylpyrrolidin-2-yl)methoxy)quinazolin-7-yl)-2-methylbenzo[d]thiazole]	> 500	> 500
Nc1nc2c(-c3c(Cl)cc4c(N5CCNCC(F)(F)C5)nc(OCc5ccccn5)nc4c3F)cccc2s1 [Compound 139, 4-(6-chloro-4-(6,6-difluoro-1,4-diazepan-1-yl)-8-fluoro-2-(pyridin-2-ylmethoxy)-quinazolin-7-yl)benzo[d]-thiazol-2-amine]	> 500	> 500
Nc1nc2c(-c3c(Cl)cc4c(N5CCNCC(F)(F)C5)nc(Oc5cccnc5C5CC5)nc4c3F)cccc2s1 [Compound 145, 4-(6-chloro-2-((2-cycloprop-ylpyridin-3-yl)oxy)-4-(6,6-difluoro-1,4-diazepan-1-yl)-8-fluoroquinazolin-7-yl)-benzo[d]thiazol-2-amine]	> 500	> 500
CN1C[C@H](F)C[C@H]1COc1nc(N2CCNCC(F)(F)C2)c2cc(Cl)c(-c3cccc4sc(N)nc34)c(F)c2n1 [Compound 146, 4-(6-chloro-4-(6,6-difluoro-1,4-diazepan-1-yl)-8-fluoro-2-(((2S,4R)-4-fluoro-1-methylpyrrolidin-2-yl)meth-oxy)quinazolin-7-yl)benzo-[d]thiazol-2-amine]	< 500	< 500
CN1CCC[C@H]1COc1nc(N2CCCOCC2)c2cc(Cl)c(-c3ccc(F)c4sc(N)nc34)c(F)c2n1 [Compound 147, 4-(6-chloro-8-fluoro-2-(((S)-1-methylpyrrolidin-2-yl)-methoxy)-4-(1,4-oxazepan-4-yl)quinazolin-7-yl)-7-fluorobenzo[d]thiazol-2-amine]	< 500	< 500

The remaining lines, values ahead:

IC50 [1] [nM]	IC50 [2] [nM]	SMILES
> 500	< 500	CN1CCC[C@H]1COc1nc(N2CCN(S(C)(=O)=O)CC(F)(F)C2)c2cc(Cl)c(-c3cccc4sc(N)nc34)c(F)c2n1 [Compound 140, 4-(6-chloro-4-(6,6-difluoro-4-(methylsulfonyl)-1,4-diazepan-1-yl)-8-fluoro-2-(((S)-1-methylpyrrolidin-2-yl)methoxy)quinazolin-7-yl)-benzo[d]thiazol-2-amine]
> 500	< 500	CN1CCC[C@H]1COc1nc(N2CCN(C(=O)CN)CC(F)(F)C2)c2cc(Cl)c(-c3cccc4sc(N)nc34)c(F)c2n1 [Compound 141, 2-amino-1-(4-(7-(2-amino-benzo[d]thiazol-4-yl)-6-chloro-8-fluoro-2-(((S)-1-methylpyrrolidin-2-yl)meth-oxy)quinazolin-4-yl)-6,6-difluoro-1,4-diazepan-1-yl)-ethan-1-one]
< 500	< 500	CN1CCC[C@H]1COc1nc(N2CCNC(=O)CC2)c2cc(Cl)c(-c3cccc4sc(N)nc34)c(F)c2n1 [Compound 142, 1-(7-(2-aminobenzo[d]-thiazol-4-yl)-6-chloro-8-fluoro-2-(((S)-1-methyl-pyrrolidin-2-yl)methoxy)-quinazolin-4-yl)-1,4-diazepan-5-one]
> 500	> 500	CN1CCC[C@H]1COc1nc(N2CCC3CNCC3C2)c2cc(Cl)c(-c3cccc4sc(N)nc34)c(F)c2n1 (stereo partly drawn) [Compound 143, 4-(6-chloro-8-fluoro-2-(((S)-1-methylpyrrolidin-2-yl)-methoxy)-4-(octahydro-5H-pyrrolo[3,4-c]pyridin-5-yl)-quinazolin-7-yl)benzo[d]-thiazol-2-amine]
> 500	> 500	CN1CCC[C@H]1COc1nc(N2CC3CNCC3C2)c2cc(Cl)c(-c3cccc4sc(N)nc34)c(F)c2n1 (stereo partly drawn) [Compound 144, 4-(6-chloro-8-fluoro-4-(hexahydropyrrolo[3,4-c]-pyrrol-2(1H)-yl)-2-(((S)-1-methylpyrrolidin-2-yl)meth-oxy)quinazolin-7-yl)benzo-[d]thiazol-2-amine]
